Measurements: ChEMBL document CHEMBL1133414, “Bifunctional alkylating agents derived from duocarmycin SA: potent antitumor activity with altered sequence selectivity” (Bioorg Med Chem Lett, 2000)
pIC50: −log10 of the molar value.

Test system: L1210
Assay: In vitro cytotoxicity against L1210 cell line
Type: functional, cell-based
Conditions: Mus musculus

Compound: COC(=O)c1cc2c([nH]1)C(=O)C=C1N(C(=O)c3cc4cc(OC)c(OC)c(OC)c4[nH]3)C[C@@H]3C[C@@]123
- pIC50: 10.00

Compound: COC(=O)c1cc2c([nH]1)C(=O)C=C1N(C(=O)c3cc4c([nH]3)C(=O)C=C3N(C(=O)OC(C)(C)C)C[C@H]5C[C@]345)C[C@@H]3C[C@@]123
- pIC50: 10.40

Compound: COC(=O)c1cc2c([nH]1)C(=O)C=C1N(C(=O)c3cc4c([nH]3)C(=O)C=C3N(C(=O)OC(C)(C)C)C[C@@H]5C[C@@]345)C[C@@H]3C[C@@]123
- pIC50: 10.30

Compound: COC(=O)c1cc2c([nH]1)C(=O)C=C1N(C(=O)c3cc4c([nH]3)C(=O)C=C3N(C(=O)OC(C)(C)C)C[C@H]5C[C@]345)C[C@H]3C[C@]123
- pIC50: 11.52

Compound: COC(=O)c1cc2c([nH]1)C(=O)C=C1N(C(=O)c3cc4c([nH]3)C(=O)C=C3N(C(=O)OC(C)(C)C)C[C@@H]5C[C@@]345)C[C@H]3C[C@]123 (mixture of isomers)
- pIC50: 11.30

Compound: COC(=O)c1cc2c([nH]1)C(=O)C=C1N(C(=O)c3cc4cc(OC)c(OC)c(OC)c4[nH]3)C[C@H]3C[C@]123 [DUOCARMYCIN]
- pIC50: 11.00
